Measurements taken from patent US8541033B2, “Production of human antibodies using NOD/SCID/γcnull mice” (Central Institute for Experimental Animals, priority 2000, dated 2013).

Experiments:
[1] = tested on: ED-40515(−); assay: Effect of CXCR4 antagonist on in vivo growth of ED-40515(−) tumor in NOG mice; conditions: 7.5×10^7 cells inoculated, KRH-1636 0.14 mg/mouse intraperitoneally every day, 15 days
Description: (§1) Using 3 samples of HTLV-1 leukemia derived cell lines [L=Leukemic cell lines: ED-40515(−), MT-1 and TL-Oml], 6 samples of HTLV-1 infected cell lines [IT=infected transformed cell lines: SLB-1, M8116, HUT-102, MT-2, MT-4 and TY9-31MT], 10^7-8 cells/0.5 mL were transplanted to NOG mice and NOD/Shi-scid mice subcutaneously at a left posterior auricle thereof, and to some of them subcutaneously at a gluteal region thereof. Then, the tumor size in the mice, tissue image, and the mice with, and those without, leukemia were chronologically compared for examination, and the relations between these and transcription factors such as NFkB or fluctuation of Tax protein were also analyzed.
(§2) Assuming that effective tumor formation by 10^7 of ED-40515(−) in NOG mice was attributable to active neogenesis of tumoral vessels via CXCR4 of tumor cells, it has been expected that tumor formation would be inhibited as long as there was continuous administration of KRH-1636, a competitive agent of SDF-1 which was a ligand thereof in endothelial cells. However, in the case of ED-40515(−) and SLB-1 (histologically angiotropic) accompanied by bleeding, the mice formed tumors with sizes of 25×18×12 mm and 20×10×18 mm equivalent to those of non-treated group, even though KRH-1636 was intraperitoneally administered every day.

[2] = tested on: SLB-1; assay: Effect of CXCR4 antagonist on in vivo growth of SLB-1 tumor in NOG mice; conditions: 7.5×10^7 cells inoculated, KRH-1636 0.14 mg/mouse intraperitoneally every day, 15 days
Description: as §1, §2

For `C[C@H](NC(=O)[C@H](CCCN=C(N)N)NC(=O)c1ccc(CNCc2ccccn2)cc1)c1cccc2ccccc12` [KRH-1636], the “Remarks (tumor)” value [1] was “progressive large tumor” and the “Remarks (tumor)” value [2] was “progressive large tumor”.
